# According to US20150119394A1, “Insulin-Like Growth Factor-1 Receptor Inhibitors” (Merck Sharp & Dohme Corp., priority 2012, published 2015):
# Target: T1, intracellular kinase domain of human IGF-1R (GST fusion protein) (Homo sapiens, UniProt P08069)
# T1 construct: IGFRK and IRK enzyme used for the assay was intracellular kinase domain of human IGF-1R; GST; made in house
# Assay: In vitro IGF-1R kinase assay (HTRF)
# Type: biochemical
# Conditions: ATP 20 μM, IGFRK 0.25 nM
# Description: The in vitro kinase assays using IGF-1R and IR kinase GST fusion proteins were conducted using a homogeneous time-resolved fluorescence (HTRF) format. Kinase reactions were carried out in a 384-well plate format in a final volume of 20 μL. The standard enzyme reaction buffer consisted of 50 mM Tris HCL (pH: 7.4), 1 mM EGTA, 10 mM MgCl2, 2 mM DTT, 0.01% Tween-20, IGF-1R/IR kinase enzyme, poly GT peptide substrate (Perkin Elmer [Ulight Glu-Tyr (4:1)]n) and ATP [concentration equivalent to Kmapp] […] Briefly, 2.5 μL enzyme and 2.5 μL inhibitor was preincubated for 10 minutes at 23° C. followed by the addition of 2.5 μL of poly GT substrate (final concentration of 50 nM). Reaction was initiated with the addition of 2.5 μL of ATP (final concentration of 20 μM for IGF-1R assay and 10 μM for IR assay). After 1 hour incubation at 23° C., the kinase reaction was stopped with the addition of 5 μL EDTA (final concentration of 10 mM in 20 μL). Europium cryptate—labeled antiphosphotyrosine antibody PY20 (5 μL) was added (final concentration of 2 nM) and the mixture was allowed to equilibrate for 1 hour at 23° C. followed by reading the plate in an Envision plate reader.
# The intensity of light emission at 665 nm was directly proportional to the level of substrate phosphorylation. The IC50 values for inhibitors were determined by a four-parameter sigmoidal curve fit (Sigma plot or Graph pad).
# IGFRK and IRK enzyme used for the assay was intracellular kinase domain of human IGF-1R and human IR cloned and expressed as GST fusion proteins using the baculovirus expression system and purified using glutathione—Sepharose column.
# T1 sequence (P08069 999-1274 limits assumed): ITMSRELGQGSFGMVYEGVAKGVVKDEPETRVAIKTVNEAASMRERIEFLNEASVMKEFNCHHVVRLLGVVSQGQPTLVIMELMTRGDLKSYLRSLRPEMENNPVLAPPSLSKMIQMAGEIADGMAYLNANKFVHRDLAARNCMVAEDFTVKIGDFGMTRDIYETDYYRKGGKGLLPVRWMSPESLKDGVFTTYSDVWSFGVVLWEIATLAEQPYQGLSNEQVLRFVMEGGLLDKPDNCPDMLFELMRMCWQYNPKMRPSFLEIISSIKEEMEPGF
row,IC50,Compound
1,8.5 nM,"NC(=O)c1[nH]c2ccc(Cl)cc2c1S(=O)(=O)N1CCO[C@H](COc2cccc(-c3ccncc3)c2)C1 [Compound 2, (S)-5-chloro-3-((2-((3-(pyridin-4-yl)phenoxy)methyl)morpholino)sulfonyl)-1H-indole-2-carboxamide]"
2,11.8 nM,"Cc1ccc(-c2cccc(OC[C@@H]3CN(S(=O)(=O)c4c(C(N)=O)[nH]c5ccc(Cl)cc45)CCO3)c2)cn1 [Compound 4, (S)-5-chloro-3-((2-((3-(6-methylpyridin-3-yl)phenoxy)methyl)morpholino)sulfonyl)-1H-indole-2-carboxamide]"
3,30.4 nM,"CN(C)c1ccc(-c2cccc(OC[C@@H]3CN(S(=O)(=O)c4c(C(N)=O)[nH]c5ccc(Cl)cc45)CCO3)c2)cn1 [Compound 5, (S)-5-chloro-3-((2-((3-(6-(dimethylamino)pyridin-3-yl)phenoxy)methyl)morpholino)sulfonyl)-1H-indole-2-carboxamide]"
4,65 nM,"NC(=O)c1[nH]c2ccc(Cl)cc2c1S(=O)(=O)N1CCO[C@H](COc2cccc(-c3ccc(C(F)(F)F)nc3)c2)C1 [Compound 6, (S)-5-chloro-3-((2-((3-(6-(trifluoromethyl)pyridin-3-yl)phenoxy)methyl)morpholino)sulfonyl)-1H-indole-2-carboxamide]"
5,15.5 nM,"NC(=O)c1[nH]c2ccc(Cl)cc2c1S(=O)(=O)N1CCO[C@H](COc2cccc(-c3ccc(F)nc3)c2)C1 [Compound 8, (S)-5-chloro-3-((2-((3-(6-fluoropyridin-3-yl)phenoxy)methyl)morpholino)sulfonyl)-1H-indole-2-carboxamide]"
6,199 nM,"Cc1ccccc1-c1cccc(OC[C@@H]2CN(S(=O)(=O)c3c(C(N)=O)[nH]c4ccc(Cl)cc34)CCO2)c1 [Compound 10, (S)-5-chloro-3-((2-(((2′-methyl-[1,1′-biphenyl]-3-yl)oxy)methyl)morpholino)sulfonyl)-1H-indole-2-carboxamide]"
7,15.4 nM,"NC(=O)c1[nH]c2ccc(Cl)cc2c1S(=O)(=O)N1CCO[C@H](COc2cccc(-c3ccc(F)cc3)c2)C1 [Compound 11, (S)-5-chloro-3-((2-(((4′-fluoro-[1,1′-biphenyl]-3-yl)oxy)methyl)morpholino)sulfonyl)-1H-indole-2-carboxamide]"
8,> 100 nM,"NC(=O)c1[nH]c2ccc(Cl)cc2c1S(=O)(=O)N1CCO[C@H](COc2cccc(-c3cccc(F)c3)c2)C1 [Compound 12, (S)-5-chloro-3-((2-(((3′-fluoro-[1,1′-biphenyl]-3-yl)oxy)methyl)morpholino)sulfonyl)-1H-indole-2-carboxamide]"
9,3.4 nM,"NC(=O)c1[nH]c2ccc(Cl)cc2c1S(=O)(=O)N1CCO[C@H](COc2cccc(-c3ccnc(F)c3)c2)C1 [Compound 13, (S)-5-chloro-3-((2-((3-(2-fluoropyridin-4-yl)phenoxy)methyl)morpholino)sulfonyl)-1H-indole-2-carboxamide]"
10,> 100 nM,"Cc1cccc(-c2cccc(OC[C@@H]3CN(S(=O)(=O)c4c(C(N)=O)[nH]c5ccc(Cl)cc45)CCO3)c2)c1 [Compound 14, (S)-5-chloro-3-((2-(((3′-methyl-[1,1′-biphenyl]-3-yl)oxy)methyl)morpholino)sulfonyl)-1H-indole-2-carboxamide]"
11,3.7 nM,"NC(=O)c1[nH]c2ccc(Cl)cc2c1S(=O)(=O)N1CCO[C@H](COc2cccc(-c3ccccn3)c2)C1 [Compound 15, (S)-5-chloro-3-((2-((3-(pyridin-2-yl)phenoxy)methyl)morpholino)sulfonyl)-1H-indole-2-carboxamide]"
12,2 nM,"COc1ncc(-c2cccc(OC[C@@H]3CN(S(=O)(=O)c4c(C(N)=O)[nH]c5ccc(Cl)cc45)CCO3)c2)cn1 [Compound 16, (S)-5-chloro-3-((2-((3-(2-methoxypyrimidin-5-yl)phenoxy)methyl)morpholino)sulfonyl)-1H-indole-2-carboxamide]"
13,7.3 nM,"COc1cc(-c2cccc(OC[C@@H]3CN(S(=O)(=O)c4c(C(N)=O)[nH]c5ccc(Cl)cc45)CCO3)c2)ccn1 [Compound 18, (S)-5-chloro-3-((2-((3-(2-methoxypyridin-4-yl)phenoxy)methyl)morpholino)sulfonyl)-1H-indole-2-carboxamide]"
14,2.9 nM,"Cc1cc(-c2cccc(OC[C@@H]3CN(S(=O)(=O)c4c(C(N)=O)[nH]c5ccc(Cl)cc45)CCO3)c2)ccn1 [Compound 19, (S)-5-chloro-3-((2-((3-(2-methylpyridin-4-yl)phenoxy)methyl)morpholino)sulfonyl)-1H-indole-2-carboxamide]"
15,184 nM,"Cc1ccc(OC[C@@H]2CN(S(=O)(=O)c3c(C(N)=O)[nH]c4ccc(Cl)cc34)CCO2)cc1-c1ccccc1F [Compound 21, (S)-5-chloro-3-((2-(((2′-fluoro-6-methyl-[1,1′-biphenyl]-3-yl)oxy)methyl)morpholino)sulfonyl)-1H-indole-2-carboxamide]"
16,42.5 nM,"Cc1ccc(OC[C@@H]2CN(S(=O)(=O)c3c(C(N)=O)[nH]c4ccc(Cl)cc34)CCO2)cc1-c1cccnc1F [Compound 22, (S)-5-chloro-3-((2-((3-(2-fluoropyridin-3-yl)-4-methylphenoxy)methyl)morpholino)sulfonyl)-1H-indole-2-carboxamide]"
17,132 nM,"COc1ccccc1-c1cc(OC[C@@H]2CN(S(=O)(=O)c3c(C(N)=O)[nH]c4ccc(Cl)cc34)CCO2)ccc1C [Compound 23, (S)-5-chloro-3-((2-(((2′-methoxy-6-methyl-[1,1′-biphenyl]-3-yl)oxy)methyl)morpholino)sulfonyl)-1H-indole-2-carboxamide]"
18,293 nM,"Cc1ccccc1-c1cc(OC[C@@H]2CN(S(=O)(=O)c3c(C(N)=O)[nH]c4ccc(Cl)cc34)CCO2)ccc1C [Compound 24, (S)-5-chloro-3-((2-(((2′,6-dimethyl-[1,1′-biphenyl]-3-yl)oxy)methyl)morpholino)sulfonyl)-1H-indole-2-carboxamide]"
19,53.3 nM,"COc1ccc(-c2cc(OC[C@@H]3CN(S(=O)(=O)c4c(C(N)=O)[nH]c5ccc(Cl)cc45)CCO3)ccc2C)cn1 [Compound 25, (S)-5-chloro-3-((2-((3-(6-methoxypyridin-3-yl)-4-methylphenoxy)methyl)morpholino)sulfonyl)-1H-indole-2-carboxamide]"
20,11.2 nM,"NC(=O)c1[nH]c2ccc(Cl)cc2c1S(=O)(=O)N1CCO[C@H](COc2ccc(F)c(-c3cccnc3)c2)C1 [Compound 26, (S)-5-chloro-3-((2-((4-fluoro-3-(pyridin-3-yl)phenoxy)methyl)morpholino)sulfonyl)-1H-indole-2-carboxamide]"
21,4.7 nM,"NC(=O)c1[nH]c2ccc(Cl)cc2c1S(=O)(=O)N1CCO[C@H](COc2ccc(F)c(-c3cncnc3)c2)C1 [Compound 27, (S)-5-chloro-3-((2-((4-fluoro-3-(pyrimidin-5-yl)phenoxy)methyl)morpholino)sulfonyl)-1H-indole-2-carboxamide]"
22,6.9 nM,"NC(=O)c1[nH]c2ccc(Cl)cc2c1S(=O)(=O)N1CCO[C@H](COc2ccc(F)c(-c3ccncc3)c2)C1 [Compound 28, (S)-5-chloro-3-((2-((4-fluoro-3-(pyridin-4-yl)phenoxy)methyl)morpholino)sulfonyl)-1H-indole-2-carboxamide]"
23,43.2 nM,"COc1ccc(-c2cc(OC[C@@H]3CN(S(=O)(=O)c4c(C(N)=O)[nH]c5ccc(Cl)cc45)CCO3)ccc2F)cn1 [Compound 29, (S)-5-chloro-3-((2-((4-fluoro-3-(6-methoxypyridin-3-yl)phenoxy)methyl)morpholino)sulfonyl)-1H-indole-2-carboxamide]"
24,< 100 nM,"Cc1cc(-c2cc(OC[C@@H]3CN(S(=O)(=O)c4c(C(N)=O)[nH]c5ccc(Cl)cc45)CCO3)ccc2F)ccn1 [Compound 30, (S)-5-chloro-3-((2-((4-fluoro-3-(2-methylpyridin-4-yl)phenoxy)methyl)morpholino)sulfonyl)-1H-indole-2-carboxamide]"
25,8.7 nM,"NC(=O)c1[nH]c2ccc(Cl)cc2c1S(=O)(=O)N1CCO[C@H](COc2ccc(-c3cccnc3)cc2)C1 [Compound 31, (S)-5-chloro-3-((2-((4-(pyridin-3-yl)phenoxy)methyl)morpholino)sulfonyl)-1H-indole-2-carboxamide]"
26,30.2 nM,"NC(=O)c1[nH]c2ccc(Cl)cc2c1S(=O)(=O)N1CCO[C@H](COc2ccc(-c3ccccc3)cc2)C1 [Compound 33, (S)-3-((2-(([1,1′-biphenyl]-4-yloxy)methyl)morpholino)sulfonyl)-5-chloro-1H-indole-2-carboxamide]"
27,> 1000 nM,"CN(C)c1ccc(-c2ccc(OC[C@@H]3CN(S(=O)(=O)c4c(C(N)=O)[nH]c5ccc(Cl)cc45)CCO3)cc2)cn1 [Compound 34, (S)-5-chloro-3-((2-((4-(6-(dimethylamino)pyridin-3-yl)phenoxy)methyl)morpholino)sulfonyl)-1H-indole-2-carboxamide]"
28,> 1000 nM,"NC(=O)c1[nH]c2ccc(Cl)cc2c1S(=O)(=O)N1CCO[C@H](COc2ccc(-c3ccc(C(F)(F)F)nc3)cc2)C1 [Compound 35, (S)-5-chloro-3-((2-((4-(6-(trffluoromethyl)pyridin-3-yl)phenoxy)methyl)morpholino)sulfonyl)-1H-indole-2-carboxamide]"
